Patent US20230085307A1, “PYRIDAZINONE COMPOUND AND HERBICIDE” (NISSAN CHEMICAL CORPORATION, priority 2019, published 2023)

Tests used:
Italian ryegrass [1] = assay: Test Example 4: herbicidal effect by soil treatment (Table 19, symbol K); format: in vivo, Italian ryegrass (Lolium multiflorum); conditions: amount of applied herbicide 320 g/ha
Procedure, shortened: (§1)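 Seeds were sown in sterilized diluvial soil and covered with about 1.5 cm of soil. An emulsion formulation diluted with water to a predetermined herbicide amount was sprayed evenly onto the soil surface. Plants grew in a greenhouse at 25° C. to 30° C., and the effect was scored three weeks after application using criteria from an earlier test.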

green foxtail [2] = assay: Test Example 5: herbicidal effect by foliage application, plastic box (Table 20, symbol G); format: in vivo, green foxtail (Setaria viridis); conditions: evaluated three weeks after application
Procedure, shortened: (§2)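 Plants sown in sterilized diluvial soil and grown 14 days in a greenhouse at 25° C to 30° C, then sprayed on the foliage with the compound's emulsion diluted in water to a predetermined herbicide amount. Injury to weeds and crops scored three weeks after application on a visual rating scale.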

Italian ryegrass [3] = assay: Test Example 5: herbicidal effect by foliage application, plastic box (Table 20, symbol K); format: in vivo, Italian ryegrass (Lolium multiflorum); conditions: evaluated three weeks after application
Procedure, shortened: as §2

velvetleaf [4] = assay: Test Example 4: herbicidal effect by soil treatment (Table 19, symbol M); format: in vivo, velvetleaf (Abutilon theophrasti); conditions: amount of applied herbicide 320 g/ha
Procedure, shortened: as §1

barnyard grass [5] = assay: Test Example 3: herbicidal effect by foliage application, Wagner pot (Table 18, symbol H); format: in vivo, barnyard grass (Echinochloa crus-galli)
Procedure, shortened: (§3)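 Plants were sown in alluvial soil held under 0.1–0.5 cm standing water and grown 14 days in a greenhouse at 25–30 °C. An emulsifiable formulation, water-diluted to the set dose, was then sprayed onto the foliage, and effects were scored three weeks later using previously defined criteria.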

green foxtail [6] = assay: Test Example 4: herbicidal effect by soil treatment (Table 19, symbol G); format: in vivo, green foxtail (Setaria viridis); conditions: amount of applied herbicide 320 g/ha
Procedure, shortened: as §1

Chinese sprangletop = assay: Test Example 3: herbicidal effect by foliage application, Wagner pot (Table 18, symbol D); format: in vivo, chinese sprangletop (Leptochloa chinensis)
Procedure, shortened: as §3

wild oat [7] = assay: Test Example 4: herbicidal effect by soil treatment (Table 19, symbol I); format: in vivo, wild oat (Avena fatua); conditions: amount of applied herbicide 320 g/ha
Procedure, shortened: as §1

southern crabgrass [8] = assay: Test Example 4: herbicidal effect by soil treatment (Table 19, symbol F); format: in vivo, southern crabgrass (Digitaria ciliaris); conditions: amount of applied herbicide 320 g/ha
Procedure, shortened: as §1

chickweed [9] = assay: Test Example 5: herbicidal effect by foliage application, plastic box (Table 20, symbol P); format: in vivo, common chickweed (Stellaria media); conditions: evaluated three weeks after application
Procedure, shortened: as §2

redroot pigweed [10] = assay: Test Example 4: herbicidal effect by soil treatment (Table 19, symbol N); format: in vivo, redroot pigweed (Amaranthus retroflexus); conditions: amount of applied herbicide 320 g/ha
Procedure, shortened: as §1

velvetleaf [11] = assay: Test Example 5: herbicidal effect by foliage application, plastic box (Table 20, symbol M); format: in vivo, velvetleaf (Abutilon theophrasti); conditions: evaluated three weeks after application
Procedure, shortened: as §2

barnyard grass [12] = assay: Test Example 5: herbicidal effect by foliage application, plastic box (Table 20, symbol H); format: in vivo, barnyard grass (Echinochloa crus-galli); conditions: evaluated three weeks after application
Procedure, shortened: as §2

redroot pigweed [13] = assay: Test Example 5: herbicidal effect by foliage application, plastic box (Table 20, symbol N); format: in vivo, redroot pigweed (Amaranthus retroflexus); conditions: evaluated three weeks after application
Procedure, shortened: as §2

blackgrass [14] = assay: Test Example 5: herbicidal effect by foliage application, plastic box (Table 20, symbol J); format: in vivo, blackgrass (Alopecurus myosuroides); conditions: evaluated three weeks after application
Procedure, shortened: as §2

lambsquarters [15] = assay: Test Example 5: herbicidal effect by foliage application, plastic box (Table 20, symbol O); format: in vivo, lambsquarters (Chenopodium album); conditions: evaluated three weeks after application
Procedure, shortened: as §2

blackgrass [16] = assay: Test Example 4: herbicidal effect by soil treatment (Table 19, symbol J); format: in vivo, blackgrass (Alopecurus myosuroides); conditions: amount of applied herbicide 320 g/ha
Procedure, shortened: as §1

southern crabgrass [17] = assay: Test Example 5: herbicidal effect by foliage application, plastic box (Table 20, symbol F); format: in vivo, southern crabgrass (Digitaria ciliaris); conditions: evaluated three weeks after application
Procedure, shortened: as §2

persian speedwell [18] = assay: Test Example 5: herbicidal effect by foliage application, plastic box (Table 20, symbol R); format: in vivo, Persian speedwell (Veronica persica); conditions: evaluated three weeks after application
Procedure, shortened: as §2

barnyard grass [19] = assay: Test Example 4: herbicidal effect by soil treatment (Table 19, symbol H); format: in vivo, barnyard grass (Echinochloa crus-galli); conditions: amount of applied herbicide 320 g/ha
Procedure, shortened: as §1

windgrass [20] = assay: Test Example 5: herbicidal effect by foliage application, plastic box (Table 20, symbol L); format: in vivo, windgrass (Apera spica-venti); conditions: evaluated three weeks after application
Procedure, shortened: as §2

lambsquarters [21] = assay: Test Example 4: herbicidal effect by soil treatment (Table 19, symbol O); format: in vivo, lambsquarters (Chenopodium album); conditions: amount of applied herbicide 320 g/ha
Procedure, shortened: as §1

persian speedwell [22] = assay: Test Example 4: herbicidal effect by soil treatment (Table 19, symbol R); format: in vivo, Persian speedwell (Veronica persica); conditions: amount of applied herbicide 320 g/ha
Procedure, shortened: as §1

wild oat [23] = assay: Test Example 5: herbicidal effect by foliage application, plastic box (Table 20, symbol I); format: in vivo, wild oat (Avena fatua); conditions: evaluated three weeks after application
Procedure, shortened: as §2

rice flat sedge = assay: Test Example 3: herbicidal effect by foliage application, Wagner pot (Table 18, symbol E); format: in vivo, rice flat sedge (Cyperus iria)
Procedure, shortened: as §3

chickweed [24] = assay: Test Example 4: herbicidal effect by soil treatment (Table 19, symbol P); format: in vivo, common chickweed (Stellaria media); conditions: amount of applied herbicide 320 g/ha
Procedure, shortened: as §1

windgrass [25] = assay: Test Example 4: herbicidal effect by soil treatment (Table 19, symbol L); format: in vivo, windgrass (Apera spica-venti); conditions: amount of applied herbicide 320 g/ha
Procedure, shortened: as §1

[26] = amount of applied herbicide 320 g/ha, foliage application after 14-day growth
[27] = foliage application, AAH 320 g/ha
[28] = amount of applied herbicide 320 g/ha

Cc1nn(C)c(=O)c(-c2c(-c3ccc(OC(F)(F)F)cc3)sc3c(C)cccc23)c1O [4-130]
K: Italian ryegrass, herbicidal effect grade (Italian ryegrass [1]): 0 (Herbicidal rate of 5% or less (almost no effect))
Herbicidal effect by foliage application, G: green foxtail (green foxtail [2]; [26]): 0 (Herbicidal rate of 5% or less (almost no effect))
Herbicidal effect by foliage application, K: Italian ryegrass (Italian ryegrass [3]; [26]): 3 (Herbicidal rate of 40% or more and less than 70%)
M: velvetleaf, herbicidal effect grade (velvetleaf [4]): 2 (Herbicidal rate of 20% or more and less than 40%)
herbicidal effect on barnyard grass (H) (barnyard grass [5]; 320 g/ha): 3 (Herbicidal rate of 40% or more and less than 70%)
G: green foxtail, herbicidal effect grade (green foxtail [6]): 0 (Herbicidal rate of 5% or less (almost no effect))
herbicidal effect on Chinese sprangletop (D) (Chinese sprangletop; 320 g/ha): 0 (Herbicidal rate of 5% or less (almost no effect))
I: wild oat, herbicidal effect grade (wild oat [7]): 0 (Herbicidal rate of 5% or less (almost no effect))
F: southern crabgrass, herbicidal effect grade (southern crabgrass [8]): 0 (Herbicidal rate of 5% or less (almost no effect))
Herbicidal effect by foliage application, P: chickweed (chickweed [9]; [26]): 5 (Herbicidal rate of 90% or more (almost completely withered))
N: redroot pigweed, herbicidal effect grade (redroot pigweed [10]): 5 (Herbicidal rate of 90% or more (almost completely withered))
Herbicidal effect by foliage application, M: velvetleaf (velvetleaf [11]; [26]): 4 (Herbicidal rate of 70% or more and less than 90%)
Herbicidal effect by foliage application, H: barnyard grass (barnyard grass [12]; [26]): 0 (Herbicidal rate of 5% or less (almost no effect))
Herbicidal effect by foliage application, N: redroot pigweed (redroot pigweed [13]; [26]): 5 (Herbicidal rate of 90% or more (almost completely withered))
Herbicidal effect by foliage application, J: blackgrass (blackgrass [14]; [26]): 3 (Herbicidal rate of 40% or more and less than 70%)
Herbicidal effect by foliage application, O: lambsquarters (lambsquarters [15]; [26]): 5 (Herbicidal rate of 90% or more (almost completely withered))
J: blackgrass, herbicidal effect grade (blackgrass [16]): 0 (Herbicidal rate of 5% or less (almost no effect))
Herbicidal effect by foliage application, F: southern crabgrass (southern crabgrass [17]; [26]): 0 (Herbicidal rate of 5% or less (almost no effect))
Herbicidal effect by foliage application, R: persian speedwell (persian speedwell [18]; [26]): 5 (Herbicidal rate of 90% or more (almost completely withered))
H: barnyard grass, herbicidal effect grade (barnyard grass [19]): 0 (Herbicidal rate of 5% or less (almost no effect))
Herbicidal effect by foliage application, L: windgrass (windgrass [20]; [26]): 3 (Herbicidal rate of 40% or more and less than 70%)
O: lambsquarters, herbicidal effect grade (lambsquarters [21]): 1 (Herbicidal rate of 5% or more and less than 20%)
R: persian speedwell, herbicidal effect grade (persian speedwell [22]): 4 (Herbicidal rate of 70% or more and less than 90%)
Herbicidal effect by foliage application, I: wild oat (wild oat [23]; [26]): 0 (Herbicidal rate of 5% or less (almost no effect))
herbicidal effect on rice flat sedge (E) (rice flat sedge; 320 g/ha): 4 (Herbicidal rate of 70% or more and less than 90%)
P: chickweed, herbicidal effect grade (chickweed [24]): 1 (Herbicidal rate of 5% or more and less than 20%)
L: windgrass, herbicidal effect grade (windgrass [25]): 0 (Herbicidal rate of 5% or less (almost no effect))

Cc1nn(C)c(=O)c(-c2c(-c3ccc(OC(F)F)cc3)sc3ccc(F)cc23)c1OCC#N [2-303]
herbicidal effect on K: Italian ryegrass (Italian ryegrass [1]): 0 (Herbicidal rate of 5% or less (almost no effect))
G: green foxtail, herbicidal effect (criteria 0-5) (green foxtail [2]; [27]): 5 (Herbicidal rate of 90% or more (almost completely withered))
K: Italian ryegrass, herbicidal effect (criteria 0-5) (Italian ryegrass [3]; [27]): 3 (Herbicidal rate of 40% or more and less than 70%)
herbicidal effect on M: velvetleaf (velvetleaf [4]): 0 (Herbicidal rate of 5% or less (almost no effect))
herbicidal effect on H: barnyard grass (barnyard grass [5]; [28]): 5 (Herbicidal rate of 90% or more (almost completely withered))
herbicidal effect on G: green foxtail (green foxtail [6]): 0 (Herbicidal rate of 5% or less (almost no effect))
herbicidal effect on D: Chinese sprangletop (Chinese sprangletop; [28]): 4 (Herbicidal rate of 70% or more and less than 90%)
herbicidal effect on I: wild oat (wild oat [7]): 0 (Herbicidal rate of 5% or less (almost no effect))
herbicidal effect on F: southern crabgrass (southern crabgrass [8]): 0 (Herbicidal rate of 5% or less (almost no effect))
P: chickweed, herbicidal effect (criteria 0-5) (chickweed [9]; [27]): 5 (Herbicidal rate of 90% or more (almost completely withered))
herbicidal effect on N: redroot pigweed (redroot pigweed [10]): 0 (Herbicidal rate of 5% or less (almost no effect))
M: velvetleaf, herbicidal effect (criteria 0-5) (velvetleaf [11]; [27]): 5 (Herbicidal rate of 90% or more (almost completely withered))
H: barnyard grass, herbicidal effect (criteria 0-5) (barnyard grass [12]; [27]): 4 (Herbicidal rate of 70% or more and less than 90%)
N: redroot pigweed, herbicidal effect (criteria 0-5) (redroot pigweed [13]; [27]): 5 (Herbicidal rate of 90% or more (almost completely withered))
J: blackgrass, herbicidal effect (criteria 0-5) (blackgrass [14]; [27]): 0 (Herbicidal rate of 5% or less (almost no effect))
O: lambsquarters, herbicidal effect (criteria 0-5) (lambsquarters [15]; [27]): 5 (Herbicidal rate of 90% or more (almost completely withered))
herbicidal effect on J: blackgrass (blackgrass [16]): 0 (Herbicidal rate of 5% or less (almost no effect))
F: southern crabgrass, herbicidal effect (criteria 0-5) (southern crabgrass [17]; [27]): 0 (Herbicidal rate of 5% or less (almost no effect))
R: persian speedwell, herbicidal effect (criteria 0-5) (persian speedwell [18]; [27]): 5 (Herbicidal rate of 90% or more (almost completely withered))
herbicidal effect on H: barnyard grass (barnyard grass [19]): 0 (Herbicidal rate of 5% or less (almost no effect))
L: windgrass, herbicidal effect (criteria 0-5) (windgrass [20]; [27]): 0 (Herbicidal rate of 5% or less (almost no effect))
herbicidal effect on O: lambsquarters (lambsquarters [21]): 0 (Herbicidal rate of 5% or less (almost no effect))
herbicidal effect on R: persian speedwell (persian speedwell [22]): 4 (Herbicidal rate of 70% or more and less than 90%)
I: wild oat, herbicidal effect (criteria 0-5) (wild oat [23]; [27]): 0 (Herbicidal rate of 5% or less (almost no effect))
herbicidal effect on E: rice flat sedge (rice flat sedge; [28]): 3 (Herbicidal rate of 40% or more and less than 70%)
herbicidal effect on P: chickweed (chickweed [24]): 3 (Herbicidal rate of 40% or more and less than 70%)
herbicidal effect on L: windgrass (windgrass [25]): 0 (Herbicidal rate of 5% or less (almost no effect))
